Measurements as given in patent US20220089592A1, “IMIDAZO[1,2-A]PYRIDINYL DERIVATIVES AS IRAK4 INHIBITORS” (priority 2019, published 2022).

Molecular target: T1, IRAK4 (Homo sapiens, UniProt Q9NWZ3)
T1 sequence (Q9NWZ3 1-460): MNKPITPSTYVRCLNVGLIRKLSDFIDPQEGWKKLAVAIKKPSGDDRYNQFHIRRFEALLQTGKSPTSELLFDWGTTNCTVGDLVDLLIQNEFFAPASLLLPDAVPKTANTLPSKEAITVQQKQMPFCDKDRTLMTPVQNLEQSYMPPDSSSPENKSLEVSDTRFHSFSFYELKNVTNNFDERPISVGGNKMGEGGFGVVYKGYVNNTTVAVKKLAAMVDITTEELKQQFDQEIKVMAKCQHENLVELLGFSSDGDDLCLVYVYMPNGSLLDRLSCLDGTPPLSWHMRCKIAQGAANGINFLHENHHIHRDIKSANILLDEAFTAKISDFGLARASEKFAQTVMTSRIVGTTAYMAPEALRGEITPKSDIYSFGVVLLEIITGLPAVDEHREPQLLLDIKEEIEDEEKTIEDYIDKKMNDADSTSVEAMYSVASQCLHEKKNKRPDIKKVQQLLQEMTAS
Experiment: 2-hour 10 μM ATP Biochemical Assay (MesoScale Detection format; IRAK4 phosphorylation of biotin labeled IRAK1 activation loop peptide)
Details: IRAK4 MSD BIOCHEMICAL (10 μM ATP) IC50 (μM), 1 nM IRAK4, 2 hours
Procedure: The 2-hour 10 μM ATP Biochemical Assay employs a MesoScale Detection (MSD) format.
The activity is quenched with 11 μl of 70 mM EDTA, pH 8.
To detect the phosphorylated biotinylated peptide substrate, 30 μl of the quenched reaction mixture is added to equivalent wells of a 384 well streptavidin coated MesoScale plate (Meso Scale Discovery #L21SA-1). After a 1 hour incubation of the plate for 1 hour at room temperature with gentle mixing, the plate wells are washed 3 times with 50 mM Tris, pH 7.5, 150 mM NaCl, 0.02% Tween-20.
A 25 μl volume of 1:500 anti-P-Threonine Rabbit polyclonal Antibody plus 1:500 Goat-anti-Rabbit Sulfo Tag Antibody (Meso Scale Discovery R32AB-1) in 50 mM Tris, pH 7.5, 150 mM NaCl, 0.02% Tween-20 plus 2% BSA is then added to each well. After a 1-hour incubation of the plate for 1 hour at room temperature with gentle mixing, the plate wells are washed, 3 times with 50 mM Tris, pH 7.5, 150 mM NaCl, 0.02% Tween-20. A 40 μl volume of 2×MSD Read Buffer (Meso Scale Discovery R92TC-1) is added to each well, and the plate is read immediately in an MSD Plate Reader (Meso Scale Discovery).

Structure (SMILES)	IC50
CCOc1cc2nc(CC)cn2cc1NC(=O)c1cccc(NC(C)=O)n1 [Example 32, 6-acetamido-N-(7-ethoxy-2-ethylimidazo[1,2-a]pyridin-6-yl)picolinamide]	0.064 µM
CCOc1cc2nc(CC3CCOC3)cn2cc1NC(=O)c1cn(C)cn1 (centres unmarked) [Example 157, N-(7-ethoxy-2-((tetrahydrofuran-3-yl)methyl)imidazo[1,2-a]pyridin-6-yl)-1-methyl-1H-imidazole-4-carboxamide]	2.3 µM
CCOc1cc2nc(C3CC3)cn2cc1NC(=O)c1cccc(OC(F)(F)F)n1 [Example 118, N-(2-cyclopropyl-7-ethoxyimidazo[1,2-a]pyridin-6-yl)-6-(trifluoromethoxy)picolinamide]	0.063 µM
COc1cc(NC(=O)c2cccc(C(F)F)n2)cn2cc(C34COC(C)(C3)C4)nc12 [Example 508, 6-(difluoromethyl)-N-(8-methoxy-2-(1-methyl-2-oxabicyclo[2.1.1]hexan-4-yl)imidazo[1,2-a]pyridin-6-yl)picolinamide 2,2,2-trifluoroacetate]	0.002 µM
CCOc1cc2nc3c(n2cc1NC(=O)c1cccc(C(F)(F)F)n1)CNCC3 [Example 64, N-(7-ethoxy-1,2,3,4-tetrahydroimidazo[1,2-a:5,4-c′]dipyridin-8-yl)-6-(trifluoromethyl)picolinamide]	0.68 µM
O=C(Nc1cn2cc(C3CC3)nc2cn1)c1cccc(C(F)F)n1 [Example 31, N-(2-cyclopropylimidazo[1,2-a]pyrazin-6-yl)-6-(difluoromethyl)picolinamide]	0.089 µM
CCOc1cc2nc(CC)cn2cc1NC(=O)c1ccc(Cl)cn1 [Example 46, 5-chloro-N-(7-ethoxy-2-ethylimidazo[1,2-a]pyridin-6-yl)picolinamide]	0.083 µM
CCOc1cc2nc(CN3CCOCC3)cn2cc1NC(=O)c1cccc(C(F)F)n1 [Example 121, 6-(difluoromethyl)-N-(7-ethoxy-2-(morpholinomethyl)imidazo[1,2-a]pyridin-6-yl)picolinamide]	2.21 µM
CCOc1cc2nc(C3CC3)cn2cc1NC(=O)c1cccc(C(F)(F)F)c1 [Example 54, N-(2-cyclopropyl-7-ethoxyimidazo[1,2-a]pyridin-6-yl)-3-(trifluoromethyl)benzamide]	0.14 µM
CCc1cn2cc(NC(=O)c3cccc(C(F)F)n3)cc(F)c2n1 [Example 76, 6-(difluoromethyl)-N-(2-ethyl-8-fluoroimidazo[1,2-a]pyridin-6-yl)picolinamide]	0.17 µM
C[C@@H](COc1cc2nc(C3CC3)cn2cc1NC(=O)c1cccc(C(F)F)n1)n1ccccc1=O (single isomer, unassigned) [Example 8]	0.14 µM
COc1cc(NC(=O)c2cccc(C(F)F)n2)cn2cc(C3CC4CCC(C3)O4)nc12 (centres unmarked) [Example 509, N-(2-(8-oxabicyclo[3.2.1]octan-3-yl)-8-methoxyimidazo[1,2-a]pyridin-6-yl)-6-(difluoromethyl)picolinamide 2,2,2-trifluoroacetate]	0.002 µM
COc1cc(NC(=O)c2ccn(C)n2)cn2cc(C3CCOCC3)nc12 [Example 412, N-(8-methoxy-2-(tetrahydro-2H-pyran-4-yl)imidazo[1,2-a]pyridin-6-yl)-1-methyl-1H-pyrazole-3-carboxamide 2,2,2-trifluoroacetate]	0.037 µM
COc1cc(NC(=O)c2cccc(C(F)F)n2)cn2cc(C34CC(C(F)F)(C3)C4)nc12 [Example 512, 6-(difluoromethyl)-N-(2-(3-(difluoromethyl)bicyclo[1.1.1]pentan-1-yl)-8-methoxyimidazo[1,2-a]pyridin-6-yl)picolinamide 2,2,2-trifluoroacetate]	0.004 µM
CCOc1cc2nc(C3CCN(C)CC3)cn2cc1NC(=O)c1cccc(C(F)(F)F)n1 [Example 67, N-(7-ethoxy-2-(1-methylpiperidin-4-yl)imidazo[1,2-a]pyridin-6-yl)-6-(trifluoromethyl)picolinamide]	0.001 µM
CC(C)Oc1cc2nc(C3CCOCC3)cn2cc1NC(=O)c1cccc(C(F)F)n1 [Example 167, 6-(difluoromethyl)-N-(7-isopropoxy-2-(tetrahydro-2H-pyran-4-yl)imidazo[1,2-a]pyridin-6-yl)picolinamide]	0.001 µM

Structure (SMILES)	IC50
CCOc1cc2nc(CC3CCOC3)cn2cc1NC(=O)c1coc(-c2cnn(C)c2)n1 (single isomer, unassigned) [Example 252, N-(7-ethoxy-2-((tetrahydrofuran-3-yl)methyl)imidazo[1,2-a]pyridin-6-yl)-2-(1-methyl-1H-pyrazol-4-yl)oxazole-4-carboxamide]	0.001 µM
CCOc1cc2nc(C3CC3)cn2cc1NC(=O)c1cccn(CC(F)(F)F)c1=O [Example 70, N-(2-cyclopropyl-7-ethoxyimidazo[1,2-a]pyridin-6-yl)-2-oxo-1-(2,2,2-trifluoroethyl)-1,2-dihydropyridine-3-carboxamide]	0.15 µM
CCOc1cc2nc(CC)cn2cc1NC(=O)c1ccc2c(c1)COCC2 [Example 43, N-(7-ethoxy-2-ethylimidazo[1,2-a]pyridin-6-yl)isochromane-7-carboxamide]	2.6 µM
CC1(COc2cc3nc(C4CCOCC4)cn3cc2NC(=O)c2cnn(C(F)F)c2)COC1 [Example 161, 1-(difluoromethyl)-N-(7-((3-methyloxetan-3-yl)methoxy)-2-(tetrahydro-2H-pyran-4-yl)imidazo[1,2-a]pyridin-6-yl)-1H-pyrazole-4-carboxamide]	0.4 µM
COc1cc(NC(=O)c2cccc(C(F)F)n2)cn2cc(CC3CCOCC3)nc12 [Example 506, 6-(difluoromethyl)-N-(8-methoxy-2-((tetrahydro-2H-pyran-4-yl)methyl)imidazo[1,2-a]pyridin-6-yl)picolinamide]	0.004 µM
CCOc1cc2nc(C3CC3)cn2cc1NC(=O)c1cccc(C2(O)CCC2)n1 [Example 132, N-(2-cyclopropyl-7-ethoxyimidazo[1,2-a]pyridin-6-yl)-6-(1-hydroxycyclobutyl)picolinamide]	0.018 µM
CCOc1cc2nc(CC)cn2cc1NC(=O)c1nc(C)c(C)s1 [Example 48, N-(7-ethoxy-2-ethylimidazo[1,2-a]pyridin-6-yl)-4,5-dimethylthiazole-2-carboxamide]	2 µM
CCOc1cc2nc(CC)cn2cc1NC(=O)c1ccc2c(c1)NC(=O)C2 [Example 41, N-(7-ethoxy-2-ethylimidazo[1,2-a]pyridin-6-yl)-2-oxoindoline-6-carboxamide]	0.14 µM
CCOc1cc2nc(CC)cn2cc1NC(=O)c1ccc(C)c(C)n1 [Example 34, N-(7-ethoxy-2-ethylimidazo[1,2-a]pyridin-6-yl)-5,6-dimethylpicolinamide]	0.023 µM
Cc1cc(NC(=O)c2cccc(C(F)F)n2)cn2cc(C3CCOCC3)nc12 [Example 410, 6-(difluoromethyl)-N-(8-methyl-2-(tetrahydro-2H-pyran-4-yl)imidazo[1,2-a]pyridin-6-yl)picolinamide 2,2,2-trifluoroacetate]	0.011 µM
CCOc1cc2nc(CC3CCOC3)cn2cc1NC(=O)c1nc(C)co1 (centres unmarked) [Example 154, N-(7-ethoxy-2-((tetrahydrofuran-3-yl)methyl)imidazo[1,2-a]pyridin-6-yl)-4-methyloxazole-2-carboxamide]	0.22 µM
COc1cc(NC(=O)c2cccc(C(F)F)n2)cn2cc(CC3CCOC3)nc12 (centres unmarked) [Example 411, 6-(difluoromethyl)-N-(8-methoxy-2-((tetrahydrofuran-3-yl)methyl)imidazo[1,2-a]pyridin-6-yl)picolinamide]	0.003 µM
CCOc1cc2nc(C(C)(C)C#N)cn2cc1NC(=O)c1cccc(C(F)CF)n1 (centres unmarked) [Example 245, N-(2-(2-cyanopropan-2-yl)-7-ethoxyimidazo[1,2-a]pyridin-6-yl)-6-(1,2-difluoroethyl)picolinamide]	0.002 µM
CCOc1cc2nc(CC)cn2cc1NC(=O)c1ccc(F)c(C(F)(F)F)n1 [Example 51, N-(7-ethoxy-2-ethylimidazo[1,2-a]pyridin-6-yl)-5-fluoro-6-(trifluoromethyl)picolinamide]	0.21 µM
CCOc1cc2nc(CC)cn2cc1NC(=O)c1ccc2c(c1)CCOC2 [Example 47, N-(7-ethoxy-2-ethylimidazo[1,2-a]pyridin-6-yl)isochromane-6-carboxamide]	1.1 µM
O=C(Nc1cn2cc(C3CC3)nc2cc1OCCN1CCOCC1)c1cccc(C(F)F)n1 [Example 102, N-(2-cyclopropyl-7-(2-morpholinoethoxy)imidazo[1,2-a]pyridin-6-yl)-6-(difluoromethyl)picolinamide]	0.061 µM
